Our source for the IC50 values is US20250188057A1, “NON-AROMATIC CYCLIC-PYRIMIDINE ANALOGS AS GLUCOSYLCERAMIDE SYNTHASE INHIBITORS” (Merck Sharp & Dohme LLC, priority 2022, published 2025).

SMILES strings stand for the structures.

In the assay the target is glucosylceramide synthase (GCS) (Homo sapiens (Human), UniProt Q16739). In words: UDP-Glo glucosylceramide synthase biochemical assay. The note with it: endogenous GCS in Golgi preparations isolated from human A375 malignant melanoma skin cells; UDP detection by luminescence. The method, boiled down: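 Endogenous GCS in A375 Golgi preparations (1.5 μg total protein) was preincubated with compound for 30 min at RT, then reacted with UDP-glucose and ceramide for 20 h at RT. UDP was detected by luciferase luminescence, normalized to DMSO and reference-inhibitor controls, with EC50 and % Emax from a 4PL fit.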
Chain of glucosylceramide synthase (GCS) (Q16739 whole entry): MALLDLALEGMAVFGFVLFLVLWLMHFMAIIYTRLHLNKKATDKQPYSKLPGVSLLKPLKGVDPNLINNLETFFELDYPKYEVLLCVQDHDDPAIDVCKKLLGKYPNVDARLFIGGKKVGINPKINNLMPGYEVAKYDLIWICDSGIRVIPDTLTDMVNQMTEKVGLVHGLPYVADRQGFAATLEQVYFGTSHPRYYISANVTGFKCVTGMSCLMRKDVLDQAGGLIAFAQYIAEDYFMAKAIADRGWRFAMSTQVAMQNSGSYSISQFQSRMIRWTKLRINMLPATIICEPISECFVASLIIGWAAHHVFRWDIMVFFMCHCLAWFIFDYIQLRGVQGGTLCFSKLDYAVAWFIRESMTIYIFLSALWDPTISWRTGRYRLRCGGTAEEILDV
By IC50 is commonly meant the midpoint of a concentration-inhibition curve. `N#Cc1cnc(C2CC2)nc1N1CCCC(c2cc3cccnc3[nH]2)C1` (centres unmarked) [Compound 76, 4-(3-(1H-pyrrolo[2,3-b]pyridin-2-yl)piperidin-1-yl)-2-cyclopropylpyrimidine-5-carbonitrile]: half-maximal inhibition (IC50) was put at 1480 nM.

As for `N#Cc1cnc(C2CC2)nc1OC[C@H]1CCN(c2ccc(C(F)(F)F)nc2)C1` [Compound 44, (S)-2-cyclopropyl-4-((1-(6-(trifluoromethyl)pyridin-3-yl)pyrrolidin-3-yl)methoxy)pyrimidine-5-carbonitrile], 140 nM corresponded to half-maximal inhibition (IC50).

`N#Cc1cnc(C2CC2)nc1NC1CCCc2sc(C3CCCC3)nc21` (centres unmarked) [Compound 95, 4-((2-cyclopentyl-4,5,6,7-tetrahydrobenzo[d]thiazol-4-yl)amino)-2-cyclopropylpyrimidine-5-carbonitrile] returned an IC50 of 19 nM.

In turn, `N#Cc1cnc(C2CC2)nc1OCC12CC(C1)N(c1ncc(C(F)(F)F)cn1)C2` [Compound 54, 2-cyclopropyl-4-((2-(5-(trifluoromethyl)pyrimidin-2-yl)-2-azabicyclo[2.1.1]hexan-4-yl)methoxy)pyrimidine-5-carbonitrile] registered a concentration for half-maximal inhibition (IC50) of 107 nM.

As to `N#Cc1cnc(C2CC2)nc1N1CC2OCCN(Cc3ccccc3)C2C1` (centres unmarked) [Compound 86, 4-(4-benzylhexahydropyrrolo[3,4-b][1,4]oxazin-6(2H)-yl)-2-cyclopropylpyrimidine-5-carbonitrile], it took 937 nM to reach half-maximal inhibition (IC50).

`Cc1ccc(-c2noc(CN3CCN(c4nc(C5CC5)ncc4C#N)CC3)n2)cc1` [Compound 88, 2-cyclopropyl-4-(4-((3-(p-tolyl)-1,2,4-oxadiazol-5-yl)methyl)piperazin-1-yl)pyrimidine-5-carbonitrile] yielded an IC50 of 446 nM.

In turn, `CC1(COc2nc(C3CC3)ncc2C#N)CCN(c2ncc(C(F)(F)F)cn2)C1` (centres unmarked) [Compound 52, 2-cyclopropyl-4-((3-methyl-1-(5-(trifluoromethyl)pyrimidin-2-yl)pyrrolidin-3-yl)methoxy)pyrimidine-5-carbonitrile] registered an IC50 of 762 nM.

On to `N#Cc1cnc(C2CC2)nc1OC[C@H]1CCN(c2sccc2C#N)C1` [Compound 14], for which 141 nM corresponded to half-maximal inhibition (IC50).

On to `N#Cc1cnc(C2CC2)nc1OC[C@H]1CCN(c2cnc(-n3cccn3)cn2)C1` [Compound 56, (S)-4-((1-(5-(1H-pyrazol-1-yl)pyrazin-2-yl)pyrrolidin-3-yl)methoxy)-2-cyclopropylpyrimidine-5-carbonitrile], for which the IC50 turned out to be 161 nM.

Consider `N#Cc1cnc(C2CC2)nc1N1CCc2c(sn(Cc3ccc(F)cc3)c2=O)C1` [Compound 69, 2-cyclopropyl-4-(2-(4-fluorobenzyl)-3-oxo-3,4,5,7-tetrahydroisothiazolo[5,4-c]pyridin-6(2H)-yl)pyrimidine-5-carbonitrile], for which the IC50 amounted to 2760 nM.

Molecule `Cc1nc(N2CC(c3nc4ccccc4n3C)C2)cc(N2CC(CC(C)C)CC2=O)n1` (centres unmarked) [Compound 117, 4-isobutyl-1-(2-methyl-6-(3-(1-methyl-1H-benzo[d]imidazol-2-yl)azetidin-1-yl)pyrimidin-4-yl)pyrrolidin-2-one] registered an IC50 of 1140 nM.

In the case of `N#Cc1cnc(C2CC2)nc1OC[C@H]1CCN(c2ncccc2C(F)F)C1` [Compound 26, (S)-2-cyclopropyl-4-((1-(3-(difluoromethyl)pyridin-2-yl)pyrrolidin-3-yl)methoxy)pyrimidine-5-carbonitrile], the IC50 worked out at 4660 nM.

`N#Cc1cnc(C2CC2)nc1N1C[C@@H]2C[C@H]1CN2Cc1ccc(Cl)cc1` [Compound 89, 4-((1S,4S)-5-(4-chlorobenzyl)-2,5-diazabicyclo[2.2.1]heptan-2-yl)-2-cyclopropylpyrimidine-5-carbonitrile] gave an IC50 of 352 nM.

In turn, `OCc1cnc(C2CC2)nc1OC1CCN(c2ccc(C(F)(F)F)nc2)CC1` [Compound 6, (2-cyclopropyl-4-((1-(6-(trifluoromethyl)pyridin-3-yl)piperidin-4-yl)oxy)pyrimidin-5-yl)methanol] returned an IC50 of 1440 nM.
